Measurements: PubChem BioAssay (NCI)
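Step 1: Grow cells in 96-well plates. Step 2: Expose to compound for 48 hours at 5 concentrations. Step 3: Interpolate endpoints linearly; if unreached, use highest concentration. TGI denotes the concentration required for complete inhibition of growth.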

Tests used:
Assay in all cases: DTP human tumour cell line panel, 48 h
[1] = system: LXFL 529 NSCLC
[2] = system: SNB-75 CNS
[3] = system: KM20L2 colon
[4] = system: RXF-631 renal
[5] = system: SW-620 colon
[6] = system: SK-OV-3 ovarian
[7] = system: SF-539 CNS
[8] = system: XF 498 CNS
[9] = system: LOX IMVI melanoma
[10] = system: A549 NSCLC
[11] = system: HCT-116 colon
[12] = system: DLD-1 colon
[13] = system: HCT-15 colon
[14] = system: SF-295 CNS
[15] = system: M19-MEL melanoma
[16] = system: OVCAR-5 ovarian
[17] = system: OVCAR-3 ovarian
[18] = system: SK-MEL-28 melanoma
[19] = system: OVCAR-8 ovarian
[20] = system: DMS 114 small cell lung
[21] = system: SNB-19 CNS
[22] = system: CCRF-CEM leukemia
[23] = system: SNB-78 CNS
[24] = system: UACC-62 melanoma
[25] = system: NCI-H226 lung
[26] = system: K-562 leukemia
[27] = system: UACC-257 melanoma
[28] = system: SK-MEL-2 melanoma
[29] = system: SN12C renal
[30] = system: COLO 205 colon
[31] = system: HCC-2998 colon
[32] = system: CAKI-1 renal
[33] = system: ACHN renal
[34] = system: MOLT-4 leukemia
[35] = system: NCI-H522 lung
[36] = system: KM12 colon
[37] = system: EKVX NSCLC
[38] = system: UO-31 renal
[39] = system: SF-268 CNS
[40] = system: HOP-62 NSCLC
[41] = system: MALME-3M melanoma
[42] = system: HT29 colon
[43] = system: A498 renal
[44] = system: M14 melanoma
[45] = system: HL-60(TB) leukemia
[46] = system: RPMI-8226 leukemia
[47] = system: 786-0 renal
[48] = system: HOP-92 NSCLC
[49] = system: DMS 273 small cell lung
[50] = system: HOP-18 NSCLC
[51] = system: SK-MEL-5 melanoma
[52] = system: NCI-H460 lung
[53] = system: IGROV1 ovarian
[54] = system: OVCAR-4 ovarian
[55] = system: U251 CNS
[56] = system: TK-10 renal
[57] = system: NCI-H23 lung
[58] = system: RXF 393 renal

Compound: CCNC(=O)N(CC)CN(CC)C(=O)NCC
- TGI [1]: > 100 µM
- TGI [2]: > 100 µM
- TGI [3]: > 100 µM
- TGI [4]: > 100 µM
- TGI [5]: > 100 µM
- TGI [6]: > 100 µM
- TGI [7]: > 100 µM
- TGI [8]: > 100 µM
- TGI [9]: > 100 µM
- TGI [10]: > 100 µM
- TGI [11]: > 100 µM
- TGI [12]: > 100 µM
- TGI [13]: > 100 µM
- TGI [14]: > 100 µM
- TGI [15]: > 100 µM
- TGI [16]: > 100 µM
- TGI [17]: > 100 µM
- TGI [18]: > 100 µM
- TGI [19]: > 100 µM
- TGI [20]: > 100 µM
- TGI [21]: > 100 µM
- TGI [22]: > 100 µM
- TGI [23]: > 100 µM
- TGI [24]: > 100 µM
- TGI [25]: > 100 µM
- TGI [26]: > 100 µM
- TGI [27]: > 100 µM
- TGI [28]: > 100 µM
- TGI [29]: > 100 µM
- TGI [30]: > 100 µM
- TGI [31]: > 100 µM
- TGI [32]: > 100 µM
- TGI [33]: > 100 µM
- TGI [34]: > 100 µM
- TGI [35]: > 100 µM
- TGI [36]: > 100 µM
- TGI [37]: > 100 µM
- TGI [38]: > 100 µM
- TGI [39]: > 100 µM
- TGI [40]: > 100 µM
- TGI [41]: > 100 µM
- TGI [42]: > 100 µM
- TGI [43]: > 100 µM
- TGI [44]: > 100 µM
- TGI [45]: > 100 µM
- TGI [46]: > 100 µM

Compound: O=C(CCc1n[nH]c(=S)o1)Nc1ccc(Cl)cc1Cl
- TGI [1]: > 100 µM
- TGI [2]: > 100 µM
- TGI [3]: > 100 µM
- TGI [47]: > 100 µM
- TGI [4]: > 100 µM
- TGI [5]: 29.9 µM
- TGI [6]: > 100 µM
- TGI [48]: > 100 µM
- TGI [7]: > 100 µM
- TGI [49]: > 100 µM
- TGI [10]: > 100 µM
- TGI [11]: > 100 µM
- TGI [50]: > 100 µM
- TGI [51]: > 100 µM
- TGI [52]: > 100 µM
- TGI [12]: > 100 µM
- TGI [13]: 46.1 µM
- TGI [14]: > 100 µM
- TGI [15]: > 100 µM
- TGI [16]: > 100 µM
- TGI [17]: > 100 µM
- TGI [18]: > 100 µM
- TGI [19]: > 100 µM
- TGI [20]: > 100 µM
- TGI [21]: > 100 µM
- TGI [22]: > 100 µM
- TGI [23]: > 100 µM
- TGI [24]: > 100 µM
- TGI [25]: > 100 µM
- TGI [26]: > 100 µM
- TGI [27]: > 100 µM
- TGI [53]: > 100 µM
- TGI [54]: > 100 µM
- TGI [55]: > 100 µM
- TGI [29]: > 100 µM
- TGI [30]: > 100 µM
- TGI [31]: > 100 µM
- TGI [32]: > 100 µM
- TGI [56]: > 100 µM
- TGI [33]: > 100 µM
- TGI [34]: > 100 µM
- TGI [57]: > 100 µM
- TGI [35]: > 100 µM
- TGI [36]: > 100 µM
- TGI [37]: > 100 µM
- TGI [38]: > 100 µM
- TGI [39]: > 100 µM
- TGI [40]: > 100 µM
- TGI [41]: > 100 µM
- TGI [42]: > 100 µM
- TGI [43]: > 100 µM
- TGI [44]: > 100 µM
- TGI [45]: > 100 µM
- TGI [46]: 44.4 µM

Compound: CNCCCCN(C)/[N+]([O-])=N\O
- TGI [1]: > 100 µM
- TGI [58]: > 100 µM
- TGI [2]: > 100 µM
- TGI [3]: > 100 µM
- TGI [47]: > 100 µM
- TGI [4]: > 100 µM
- TGI [5]: > 100 µM
- TGI [6]: > 100 µM
- TGI [48]: > 100 µM
- TGI [7]: > 100 µM
- TGI [49]: > 100 µM
- TGI [10]: > 100 µM
- TGI [11]: > 100 µM
- TGI [50]: > 100 µM
- TGI [51]: > 100 µM
- TGI [52]: > 100 µM
- TGI [12]: > 100 µM
- TGI [13]: > 100 µM
- TGI [14]: > 100 µM
- TGI [15]: > 100 µM
- TGI [16]: > 100 µM
- TGI [17]: > 100 µM
- TGI [18]: > 100 µM
- TGI [19]: > 100 µM
- TGI [20]: > 100 µM
- TGI [21]: > 100 µM
- TGI [22]: > 100 µM
- TGI [23]: > 100 µM
- TGI [24]: > 100 µM
- TGI [25]: > 100 µM
- TGI [26]: > 100 µM
- TGI [27]: > 100 µM
- TGI [53]: > 100 µM
- TGI [54]: > 100 µM
- TGI [28]: > 100 µM
- TGI [55]: > 100 µM
- TGI [29]: > 100 µM
- TGI [30]: > 100 µM
- TGI [31]: > 100 µM
- TGI [32]: > 100 µM
- TGI [33]: > 100 µM
- TGI [34]: > 100 µM
- TGI [57]: > 100 µM
- TGI [35]: > 100 µM
- TGI [36]: > 100 µM
- TGI [37]: > 100 µM
- TGI [38]: > 100 µM
- TGI [39]: > 100 µM
- TGI [40]: > 100 µM
- TGI [41]: > 100 µM
- TGI [42]: > 100 µM
- TGI [44]: > 100 µM
- TGI [45]: > 100 µM
- TGI [46]: > 100 µM
